Read-outs that look alike come from different tables or passages of the source. Where a SMILES comes first, the peptide text is derived from it. Bridges are numbered along the chain shown (N, C = ends). Roman numbers before positions name the chains, in order. Side-chain parts run from the residue outwards. [ ]: non-standard residue; d: D form. The star is where a group is joined. BODIPY(FL) = CC1=CC(C)=[N+]2C1=Cc1ccc(CCC(=O)*)n1[B-]2(F)F; NMeK = CN[C@@H](CCCCN)C(=O)O; Ahx = NCCCCCC(=O)O

This note sets out measurements from patent US11332498B2, “Ligands for integrin αVβ8, synthesis and uses thereof” (Technische Universitat Munchen, priority 2017, dated 2022).

The target of one assay is αvβ5 (Homo sapiens, UniProt P06756+P18084). Nature of the assay: solid-phase integrin binding assay, αvβ5. The procedure:
(§1) The activity and selectivity of integrin ligands were determined by a solid-phase binding assay according to the previously reported protocols using coated extracellular matrix proteins and soluble integrins: Fibronectin (Fn) for α5β1, latent activating protein (LAP) for αvβ6 and αvβ8, Vitronectin (Vn) for αvβ3 and αvβ5, Fibrinogen (Fbg) for αIIbβ3.

In the next assay the target is αvβ6 (Homo sapiens, UniProt P06756+P18564). The assay can be described thus: solid-phase integrin binding assay, αvβ6. The procedure: as §1
The target of a further assay is αvβ8 (Homo sapiens, UniProt P06756+P26012). Nature of the assay: solid-phase integrin binding assay, αvβ8. As to conditions: for IC50: Table 1, coated LAP, soluble integrin, read-out: αvβ8 [nM] (integrin binding affinity).
The target of a further assay is α5β1 (Homo sapiens, UniProt P05556+P08648). The assay can be described thus: solid-phase integrin binding assay, α5β1. As to the method: as §1
The target in another assay is αIIbβ3 (Homo sapiens, UniProt P05106+P08514). Nature of the assay: solid-phase integrin binding assay, αIIbβ3. As to conditions: Table 2; coated Fibrinogen. The procedure: as §1
The next assay concerns the target αvβ3 (Homo sapiens, UniProt P05106+P06756). The assay can be described thus: solid-phase integrin binding assay, αvβ3. As to conditions: Table 2; coated Vitronectin. The procedure: as §1
[1] abbreviates: Table 3, BDPFL-labelled compounds and comparatives.
Where [2] appears, read: Table 1, coated LAP, soluble integrin, read-out: αvβ6 [nM] (integrin binding affinity).

Chain of αvβ5 (P06756 31-889 limits assumed): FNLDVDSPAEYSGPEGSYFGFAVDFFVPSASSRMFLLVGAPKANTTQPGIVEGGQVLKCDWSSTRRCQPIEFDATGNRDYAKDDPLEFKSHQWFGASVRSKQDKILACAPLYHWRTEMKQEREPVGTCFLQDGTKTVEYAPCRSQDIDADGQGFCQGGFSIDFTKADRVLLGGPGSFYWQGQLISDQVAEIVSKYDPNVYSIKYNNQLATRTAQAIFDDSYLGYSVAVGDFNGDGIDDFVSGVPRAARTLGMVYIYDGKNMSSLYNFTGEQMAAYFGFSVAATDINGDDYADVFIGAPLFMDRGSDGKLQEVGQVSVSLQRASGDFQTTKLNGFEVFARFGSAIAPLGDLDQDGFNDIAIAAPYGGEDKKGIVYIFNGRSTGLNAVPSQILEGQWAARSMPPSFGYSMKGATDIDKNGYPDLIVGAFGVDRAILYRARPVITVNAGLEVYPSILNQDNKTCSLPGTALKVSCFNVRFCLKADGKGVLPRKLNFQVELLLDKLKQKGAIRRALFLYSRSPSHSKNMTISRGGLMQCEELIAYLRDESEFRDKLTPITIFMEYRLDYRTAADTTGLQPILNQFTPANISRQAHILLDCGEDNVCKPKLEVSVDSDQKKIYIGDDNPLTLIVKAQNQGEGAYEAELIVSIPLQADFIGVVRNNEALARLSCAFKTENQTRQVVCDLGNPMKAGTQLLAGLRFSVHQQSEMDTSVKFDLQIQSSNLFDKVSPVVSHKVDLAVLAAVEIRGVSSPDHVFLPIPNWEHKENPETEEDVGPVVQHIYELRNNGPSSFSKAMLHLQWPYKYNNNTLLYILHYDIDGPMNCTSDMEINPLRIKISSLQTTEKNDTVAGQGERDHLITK
Chain of αvβ5 (P06756 891-1048 partner limits assumed): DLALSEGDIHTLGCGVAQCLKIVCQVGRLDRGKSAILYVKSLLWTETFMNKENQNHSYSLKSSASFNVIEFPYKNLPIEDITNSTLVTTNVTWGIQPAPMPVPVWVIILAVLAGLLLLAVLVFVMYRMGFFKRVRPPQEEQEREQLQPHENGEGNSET
Chain of αvβ5 (P18084 24-799): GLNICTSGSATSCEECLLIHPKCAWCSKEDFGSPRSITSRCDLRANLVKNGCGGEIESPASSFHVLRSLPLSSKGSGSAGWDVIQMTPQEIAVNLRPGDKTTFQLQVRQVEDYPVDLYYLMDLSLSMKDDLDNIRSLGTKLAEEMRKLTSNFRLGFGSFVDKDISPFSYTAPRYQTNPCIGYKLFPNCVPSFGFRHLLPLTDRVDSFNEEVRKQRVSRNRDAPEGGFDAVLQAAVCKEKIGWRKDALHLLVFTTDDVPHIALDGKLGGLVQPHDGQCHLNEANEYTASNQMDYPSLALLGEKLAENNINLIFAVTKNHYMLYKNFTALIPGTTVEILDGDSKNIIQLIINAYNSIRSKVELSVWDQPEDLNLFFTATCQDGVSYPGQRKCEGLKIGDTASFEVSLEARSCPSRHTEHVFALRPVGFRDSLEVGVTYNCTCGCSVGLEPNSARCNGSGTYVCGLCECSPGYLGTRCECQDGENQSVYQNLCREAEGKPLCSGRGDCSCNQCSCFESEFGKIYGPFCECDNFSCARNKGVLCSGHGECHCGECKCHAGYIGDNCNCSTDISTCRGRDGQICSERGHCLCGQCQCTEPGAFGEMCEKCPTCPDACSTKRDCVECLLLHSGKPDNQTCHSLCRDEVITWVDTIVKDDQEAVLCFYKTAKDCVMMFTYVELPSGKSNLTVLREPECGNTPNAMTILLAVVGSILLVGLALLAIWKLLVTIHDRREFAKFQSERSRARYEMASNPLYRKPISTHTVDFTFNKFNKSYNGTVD
Chain of αvβ6 (P06756 31-889 limits assumed): as the sequence (P06756 31-889 limits assumed) above
Chain of αvβ6 (P06756 891-992 partner limits assumed): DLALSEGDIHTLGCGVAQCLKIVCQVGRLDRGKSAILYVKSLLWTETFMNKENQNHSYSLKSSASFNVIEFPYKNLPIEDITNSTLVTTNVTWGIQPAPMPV
Chain of αvβ6 (P18564 22-707 limits assumed): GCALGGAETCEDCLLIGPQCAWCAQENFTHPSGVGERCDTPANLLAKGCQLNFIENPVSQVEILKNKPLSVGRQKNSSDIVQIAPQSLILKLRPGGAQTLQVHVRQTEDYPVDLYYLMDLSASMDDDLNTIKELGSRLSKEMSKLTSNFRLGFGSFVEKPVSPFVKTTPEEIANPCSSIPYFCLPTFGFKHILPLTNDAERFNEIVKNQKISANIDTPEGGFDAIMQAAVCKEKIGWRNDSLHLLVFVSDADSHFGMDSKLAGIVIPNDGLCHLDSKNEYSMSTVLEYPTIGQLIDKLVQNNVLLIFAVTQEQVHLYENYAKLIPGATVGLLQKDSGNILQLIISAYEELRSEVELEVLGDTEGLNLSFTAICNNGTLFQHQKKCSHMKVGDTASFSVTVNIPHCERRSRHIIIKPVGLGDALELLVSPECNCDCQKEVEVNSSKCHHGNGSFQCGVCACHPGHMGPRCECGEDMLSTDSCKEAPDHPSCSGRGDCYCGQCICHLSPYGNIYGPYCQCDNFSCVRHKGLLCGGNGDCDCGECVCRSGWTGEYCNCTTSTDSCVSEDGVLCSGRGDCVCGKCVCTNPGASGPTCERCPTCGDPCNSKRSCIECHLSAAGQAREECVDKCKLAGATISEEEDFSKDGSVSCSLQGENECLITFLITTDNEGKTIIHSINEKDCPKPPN
Chain of αvβ8 (P06756 31-889 limits assumed): as the sequence (P06756 31-889 limits assumed) above
Chain of αvβ8 (P06756 891-992 partner limits assumed): as the sequence (P06756 891-992 partner limits assumed) above
Chain of αvβ8 (P26012 43-684 limits assumed): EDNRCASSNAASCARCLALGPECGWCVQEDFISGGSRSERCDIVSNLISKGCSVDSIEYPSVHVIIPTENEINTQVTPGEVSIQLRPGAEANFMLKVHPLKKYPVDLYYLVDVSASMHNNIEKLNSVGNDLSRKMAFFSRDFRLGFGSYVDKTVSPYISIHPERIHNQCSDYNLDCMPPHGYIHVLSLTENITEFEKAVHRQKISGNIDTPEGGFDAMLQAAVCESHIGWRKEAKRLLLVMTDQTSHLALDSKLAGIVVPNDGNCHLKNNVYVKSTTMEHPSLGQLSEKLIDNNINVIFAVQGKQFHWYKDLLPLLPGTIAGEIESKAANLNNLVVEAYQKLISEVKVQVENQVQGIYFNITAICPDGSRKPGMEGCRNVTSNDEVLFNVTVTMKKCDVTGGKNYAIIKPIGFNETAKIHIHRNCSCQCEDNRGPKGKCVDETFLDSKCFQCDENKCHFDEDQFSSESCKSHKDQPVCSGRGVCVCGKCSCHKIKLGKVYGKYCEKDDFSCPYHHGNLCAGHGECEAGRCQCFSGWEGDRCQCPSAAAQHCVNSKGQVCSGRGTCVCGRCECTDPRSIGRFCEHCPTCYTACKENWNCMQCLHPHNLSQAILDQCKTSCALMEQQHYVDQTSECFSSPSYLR
Chain of αvβ3 (P06756 31-889 limits assumed): as the sequence (P06756 31-889 limits assumed) above
Chain of αvβ3 (P06756 891-992 partner limits assumed): as the sequence (P06756 891-992 partner limits assumed) above
Chain of αvβ3 (P05106 27-718 limits assumed): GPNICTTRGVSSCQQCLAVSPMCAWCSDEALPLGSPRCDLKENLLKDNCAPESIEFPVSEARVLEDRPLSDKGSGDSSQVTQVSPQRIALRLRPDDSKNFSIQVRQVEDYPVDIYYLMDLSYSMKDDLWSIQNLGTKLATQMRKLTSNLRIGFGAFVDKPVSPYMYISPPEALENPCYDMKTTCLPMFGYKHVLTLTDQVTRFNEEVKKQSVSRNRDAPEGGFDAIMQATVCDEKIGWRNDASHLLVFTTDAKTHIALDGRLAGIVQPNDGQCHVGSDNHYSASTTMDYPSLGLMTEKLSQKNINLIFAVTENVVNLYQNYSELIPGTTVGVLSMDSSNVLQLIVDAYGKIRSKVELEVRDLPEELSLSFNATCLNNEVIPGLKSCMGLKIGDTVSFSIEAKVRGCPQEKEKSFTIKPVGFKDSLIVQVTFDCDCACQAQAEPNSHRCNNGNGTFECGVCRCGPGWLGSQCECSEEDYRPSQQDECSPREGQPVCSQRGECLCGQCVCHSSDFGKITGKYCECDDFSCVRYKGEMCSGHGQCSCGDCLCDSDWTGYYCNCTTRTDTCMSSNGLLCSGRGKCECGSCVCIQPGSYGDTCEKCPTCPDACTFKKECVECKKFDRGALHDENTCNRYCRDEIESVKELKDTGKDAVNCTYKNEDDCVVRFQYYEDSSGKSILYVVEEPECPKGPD

Consider `Cc1cc(C)n2c1C=C1C=CC(CCC(=O)NCC(=O)N3CCC[C@H]3C(=O)N3CCC[C@H]3C(=O)N3CCC[C@H]3C(=O)NCC(=O)NCCCC[C@H]3C(=O)NCC(=O)N[C@@H](CC(C)C)C(=O)N[C@@H](CCCNC(=N)N)C(=O)NCC(=O)N[C@@H](CC(=O)O)C(=O)N[C@@H](CC(C)C)C(=O)N4CCC[C@@H]4C(=O)N3C)=[N+]1[B-]2(F)F` [Compound 9e, 9-G(P)3G-BDPFL] (I: cyclo(RGDL[dP][NMeK]GL) / II: {BODIPY(FL)}-GPPPG; amide I:6-II:C), for which the IC50 at αvβ5 (setting [1]) is above 10000 nM; at αvβ6 (Table 3, BDPFL-labelled compounds and comparatives, read-out: αvβ6, IC50) it was 247 nM.
As for `CC(=O)NCCCC[C@H]1C(=O)NCC(=O)N[C@@H](CC(C)C)C(=O)N[C@@H](CCCNC(=N)N)C(=O)NCC(=O)N[C@@H](CC(=O)O)C(=O)N[C@@H](CC(C)C)C(=O)N2CCC[C@@H]2C(=O)N1C` [compound 9, Cyclo-(Arg-Gly-Asp-Leu-D-Pro-(N-Me-Lys(Ac))-Gly-Leu)] (cyclo(RGDL[dP][NMeK](Ac)GL)), the IC50 on αvβ8 amounted to 6 nM; on αvβ6 (setting [2]), 201 nM.
Consider `Cc1cc(C)n2c1C=C1C=CC(CCC(=O)NCC(=O)N3CCC[C@H]3C(=O)N3CCC[C@H]3C(=O)N3CCC[C@H]3C(=O)N3CCC[C@H]3C(=O)N3CCC[C@H]3C(=O)N3CCC[C@H]3C(=O)NCC(=O)NCCCC[C@H]3C(=O)NCC(=O)N[C@@H](CC(C)C)C(=O)N[C@@H](CCCNC(=N)N)C(=O)NCC(=O)N[C@@H](CC(=O)O)C(=O)N[C@@H](CC(C)C)C(=O)N4CCC[C@@H]4C(=O)N3C)=[N+]1[B-]2(F)F` [Compound 9f, 9-G(P)6G-BDPFL] (I: {BODIPY(FL)}-GPPPPPPG / II: cyclo(RGDL[dP][NMeK]GL); amide I:C-II:6), for which the “binding activity to αvβ8 (in words)” value on αvβ8 (comparison with compound 9, comment on Table 3) was “reduced binding activity”. For the same compound, on αvβ5 (setting [1]), the IC50 is above 10000 nM.
As for `CC1=CC(C)=[N+]2C1=Cc1ccc(CCC(=O)NCCCCCC(=O)NCCCC[C@H]3C(=O)NCC(=O)N[C@@H](CC(C)C)C(=O)N[C@@H](CCCNC(=N)N)C(=O)NCC(=O)N[C@@H](CC(=O)O)C(=O)N[C@@H](CC(C)C)C(=O)N4CCC[C@@H]4C(=O)N3C)n1[B-]2(F)F` [Compound 9b, 9-Ahx-BDPFL] (cyclo(RGDL[dP][NMeK]([Ahx-BODIPY(FL)])GL)), the IC50 on α5β1 (setting [1]) was above 1000 nM; on αvβ5 (setting [1]), above 10000 nM.
As for `Cc1cc(C)n2c1C=C1C=CC(CCC(=O)NCCCC[C@H]3C(=O)NCC(=O)N[C@@H](CC(C)C)C(=O)N[C@@H](CCCNC(=N)N)C(=O)NCC(=O)N[C@@H](CC(=O)O)C(=O)N[C@@H](CC(C)C)C(=O)N4CCC[C@@H]4C(=O)N3C)=[N+]1[B-]2(F)F` [Compound 9a, 9-BDPFL] (cyclo(RGDL[dP][NMeK](BODIPY(FL))GL)), the IC50 at αvβ5 (setting [1]) is above 10000 nM.
As for `CC(C)C[C@@H]1NC(=O)CNC(=O)[C@H](CCCCN)N(C)C(=O)[C@H]2CCCN2C(=O)[C@H](CC(C)C)NC(=O)[C@H](CC(=O)O)NC(=O)CNC(=O)[C@H](CCCNC(=N)N)NC1=O` [compound 8, Cyclo-(Arg-Gly-Asp-Leu-D-Pro-(N-Me-Lys)-Gly-Leu)] (cyclo(RGDL[dP][NMeK]GL)), the IC50 on αvβ8 was 6.5 nM; on α5β1 (Table 2, coated Fibronectin), above 1000 nM; at αIIbβ3 it was above 1000 nM; on αvβ5 (Table 2, coated Vitronectin) it was above 1000 nM; on αvβ3 it was above 1000 nM; on αvβ6 (setting [2]), 201 nM.
`CC(C)C[C@@H]1NC(=O)CNC(=O)[C@@H]2CCCN2C(=O)[C@H]2CCCN2C(=O)[C@H](CC(C)C)NC(=O)[C@H](CC(=O)O)NC(=O)CNC(=O)[C@H](CCCNC(=N)N)NC1=O` [compound 2, Cyclo-(Arg-Gly-Asp-Leu-D-Pro-Pro-Gly-Leu)] (cyclo(RGDL[dP]PGL)): the IC50 at αvβ8 amounted to 0.93 nM; at αvβ6 (setting [2]) it was 210 nM.
